Measured values reported in patent US20250136607A1 (REGOR PHARMACEUTICALS, INC., priority 2021, published 2025).
Read-outs that look alike come from different tables or passages of the source.

Key:
[1] = target: Protein arginine deiminase 4 (PAD4) (Homo sapiens, UniProt Q9UM07); experiment: PAD4 ammonia release assay; assay type: biochemical; conditions: for IC50: PAD4 ammonia release assay, BAEE substrate, 60 min at RT, read-out: Average IC50 Abs; for relative potency of separated isomers in the PAD4 biochemical assay: SFC-separated stereoisomer pairs
Protein arginine deiminase 4 (PAD4), sequence (Q9UM07 whole entry): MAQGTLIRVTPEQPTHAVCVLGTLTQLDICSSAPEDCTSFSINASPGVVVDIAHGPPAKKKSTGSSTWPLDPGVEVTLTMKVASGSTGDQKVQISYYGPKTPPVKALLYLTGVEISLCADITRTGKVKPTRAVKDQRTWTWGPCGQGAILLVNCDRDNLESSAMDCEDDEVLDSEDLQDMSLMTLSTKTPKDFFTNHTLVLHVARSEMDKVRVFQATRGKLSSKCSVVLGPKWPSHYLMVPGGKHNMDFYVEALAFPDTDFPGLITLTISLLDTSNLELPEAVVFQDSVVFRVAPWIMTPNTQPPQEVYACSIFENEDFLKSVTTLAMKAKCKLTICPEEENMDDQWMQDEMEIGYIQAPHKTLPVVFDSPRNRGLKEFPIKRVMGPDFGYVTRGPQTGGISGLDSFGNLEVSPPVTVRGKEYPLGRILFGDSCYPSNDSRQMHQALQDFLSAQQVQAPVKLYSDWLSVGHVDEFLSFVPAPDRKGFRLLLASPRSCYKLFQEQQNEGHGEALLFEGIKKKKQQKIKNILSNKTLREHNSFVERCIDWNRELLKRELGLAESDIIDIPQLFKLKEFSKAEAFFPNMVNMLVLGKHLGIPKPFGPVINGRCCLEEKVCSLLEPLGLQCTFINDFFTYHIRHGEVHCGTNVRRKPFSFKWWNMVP
Outline: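 Ammonia release from BAEE substrate (2× mix 600 μM) was measured after 60 min at RT, following 15 min enzyme–compound preincubation (PAD4 2× 20 nM; pH 8.0 HEPES, 2 mM CaCl2, TCEP; 1.25% DMSO). Detection used OPA/DTT/EDTA for 120 min. % inhibition was taken versus reference-compound and DMSO controls; IC50 by four-parameter logistic fit.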

[2] = tested on: Citrullinated Histone H3 in dHL-60 cells (differentiated HL-60); experiment: dHL-60 Cit-H3 ELISA assay; assay type: cell-based, human; conditions: read-out: Average IC50 Abs
Outline: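 HL-60 cells differentiated 72 h with DMF, plated at 1×10^5/well, pretreated 30 min with compound (8-point 3-fold series, 0.2% DMSO), then stimulated 3 h at 37 °C with 25 μM A23187 plus S7 nuclease. Supernatant citrullinated H3 quantified by HRP ELISA at 450 nm; IC50 by four-parameter fit.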

[3] = Homo sapiens, HL-60, 3 h, stimulation with 25 μM A23187 for 3 h
[4] = stimulation with 25 μM A23187 for 3 h

| SMILES | IC50 [1] | IC50 [2, 3] | relative potency of separated isomers in the PAD4 biochemical assay [1] | IC50 [2, 4] | IC50 ([2]; Homo sapiens, HL-60, stimulation with 25 μM A23187 for 3 h) |
| --- | --- | --- | --- | --- | --- |
| C#CCn1c(-c2cc3cccc4c3n2C(CC)CN4CCCO)nc2cc(C(=O)N3C[C@H](N)C[C@@H](F)C3)cc(OC)c21 (stereo partly drawn) [Example 95, ((3R,5R)-3-amino-5-fluoropiperidin-1-yl)(2-(3-ethyl-1-(3-hydroxypropyl)-2,3-dihydro-1H-pyrrolo[1,2,3-de]quinoxalin-5-yl)-7-methoxy-1-(prop-2-yn-1-yl)-1H-benzo[d]imidazol-5-yl)methanone] | 100 to 500 nM | 100 to 500 nM |  |  |  |
| CCC1CN(CCCO)c2cccc3cc(-c4nc5cc(C(=O)N6C[C@H]7CC[C@@H]6[C@@H]7N)cc(OC)c5n4C)n1c23 (single isomer, unassigned) [Example 87] | 100 to 500 nM |  | more potent than Example 86 | ≤ 100 nM |  |
| CCC1CN(CCCO)c2cccc3cc(-c4nc5cc(C(=O)N6C[C@H](N)C[C@@H](F)C6)cc(OC)c5n4C)n1c23 (single isomer, unassigned) [Example 82] | ≤ 100 nM |  | more potent than Example 81 | ≤ 100 nM |  |
| CCC1CN(CCCO)c2cccc3cc(-c4nc5cc(C(=O)N6C[C@H](N)C[C@@H](F)C6)cc(F)c5n4C)n1c23 (stereo partly drawn) [Example 75, ((3R,5R)-3-amino-5-fluoropiperidin-1-yl)(2-(3-ethyl-1-(3-hydroxypropyl)-2,3-dihydro-1H-pyrrolo[1,2,3-de]quinoxalin-5-yl)-7-fluoro-1-methyl-1H-benzo[d]imidazol-5-yl)methanone] | 100 to 500 nM | 100 to 500 nM |  |  |  |
| CCC1CN(CCCO)c2cccc3cc(-c4nc5cc(C(=O)N6C[C@H]7CC[C@@H]6[C@@H]7N)cc(OC)c5n4C)n1c23 (single isomer, unassigned) [Example 86] | > 5000 nM |  |  | 500 to 5000 nM |  |
| CCC1CN(CCCO)c2cccc3cc(-c4nc5cc(C(=O)N6C[C@H]7CC[C@@H]6[C@@H]7N)cc(F)c5n4CC)n1c23 (stereo partly drawn) [Example 96, ((1R,4R,7R)-7-amino-2-azabicyclo[2.2.1]heptan-2-yl)(1-ethyl-2-(3-ethyl-1-(3-hydroxypropyl)-2,3-dihydro-1H-pyrrolo[1,2,3-de]quinoxalin-5-yl)-7-fluoro-1H-benzo[d]imidazol-5-yl)methanone] | 100 to 500 nM |  |  |  | ≤ 100 nM |
